The results in this text go back to patent US20030165447A1, “Topical leave-on compositions containing pantothenic acid and its derivatives to reduce the need for underarm shaving” (The Procter & Gamble Company, priority 2001, published 2003).

The structures appear in SMILES notation.

This series in a line: Acid or hold stability of sample compositions held at 85° C. for 24 hours. It is filed as physicochemical. The following applies: heated liquid held at 85° C., 24 hour period; 3.00% pantothenic acid derivative with 25.25% aluminum zirconium trichlorohydrate. Here is the method:
The topical leave-on compositions of the present invention are evaluated to determine the relative acid or hold stability of selected pantothenic acid derivatives as defined herein (e.g., ethyl panthenol, panthenyl triacetate) relative to other pantothenic acid derivatives (e.g., panthenol, calcium pantothenate). In this context, acid or hold stability is found to correlate with the lack of visibly apparent crystal formation within or extending from the sample product or by the lack of any significant off-odor development, over a 24 hours period at an elevated hold temperature of 85° C.
Each sample composition is formulated with the above-described ingredients and then held at 85° C. as a heated liquid for a 24 hour period and evaluated during that that period of time for any visibly apparent crystal formations within or extending from the formulation, and for any off-odor development. The evaluated product is maintained in the heated liquid state at 85° C. during the evaluation period to assimilate the elevated processing or hold temperatures often associated with the making of such antiperspirant and deodorant products, and to assimilate those conditions that favor acid-degradation of pantothenic acid derivatives as described herein.

For the compound `CCOCCCNC(=O)[C@H](O)C(C)(C)CO` [ethyl panthenol], the Off-odor formation entry is recorded as “little or no off-odor development” and the Visible crystal formation result was “do not exhibit the undesirable crystal formation”.
Regarding `CC(=O)OCCCNC(=O)[C@H](OC(C)=O)C(C)(C)COC(C)=O` [panthenyl triacetate], the Off-odor formation result was “little or no off-odor development” and the Visible crystal formation result is “do not exhibit the undesirable crystal formation”.
